Reference: patent US20120128670A1, “mTOR INHIBITOR AND ANGIOGENESIS INHIBITOR COMBINATION THERAPY” (OSI PHARMACEUTICALS, LLC, priority 2009, published 2012)
Like-named read-outs stand apart in the source and are kept apart here.

Legend:
[1] = system: OVCAR-5 ovarian carcinoma xenografts; experiment: Study No. 4: tumor growth inhibition in OVCAR-5 ovarian carcinoma xenografts; conditions: OVCAR-5 xenografts, 14 days, single agent
Excerpt: (§1) Regarding study Nos. 3 and 4, female athymic nude nu/nu CD-1 mice (6-8 wks, 20-29 g, Charles River Laboratories, Wilmington, Mass., USA) were allowed to acclimate for a minimum of one week prior to initiation of the study. To evaluate tumor growth inhibition, cells were harvested from cell culture flasks during exponential cell growth, washed twice with sterile PBS, counted and resuspended in PBS to a suitable concentration before s.c. implantation on the right flank of nu/nu CD-1 mice. Tumors were established to 200±50 mm^3 in size before randomization into treatment groups of 8 mice each.
(§2) All of the Tumor Growth Inhibition (TGI) studies were performed using 20% Trappsol as the vehicle with once-daily oral administration of OSI-027 for 14 or 28 consecutive days. Body weights were determined twice weekly along with tumor volume (V=[length×(width)]/2) measurements using Vernier calipers. Tumor growth inhibition was determined at different time points by the following formula:
(§3) where Tt=median tumor volume of treated at time t; T0=median tumor volume of treated at time 0; Ct=median tumor volume of control at time t; and C0=median tumor volume of control at time 0. The average TGI over the dosing period was then calculated and reported.
(§4) Tumor regressions were determined and calculated as follows using the formula: % Regression=100(T0−Ti)/T0; where T0 is the mean tumor volume for treated group at the initiation of treatment and Ti is the mean tumor volume for that group at time x.

[2] = system: H292 lung carcinoma xenografts; experiment: Study No. 3: tumor growth inhibition in H292 lung carcinoma xenografts; conditions: 21 days, single agent
Excerpt: as §1, §2, §3, §4

[3] = system: SKOV3 ovarian carcinoma xenografts; experiment: Study No. 5: tumor growth inhibition in SKOV3 ovarian carcinoma xenografts; conditions: single agent
Description: With respect to study No. 5, female athymic nude nu/nu mice (11-12 wks, 20-27 g, Harlan) were allowed to acclimate for a minimum of one week prior to initiation of the study. To evaluate tumor growth inhibition, SKOV3 tumor fragments were implanted s.c. in the right flank of nude mice. Tumors were established to mean tumor volume per treatment group of 84.6 mm^3-85.3 mm^3 of 8 mice each.
(§5) Body weights were determined twice weekly along with tumor volume (V=[length×(width)]/2) measurements using Vernier calipers. Tumor growth inhibition was determined at different time points by the following formula:
as §3, §4

[4] = system: DU145 prostate carcinoma xenografts; conditions: for % Reg. / Avg. TGI / Morbidity (Mortality): DU145 xenografts
Description: (§6) With respect to study Nos. 1 and 2, male athymic nude nu/nu mice (6-8 wks, 25-32 g, Harlan) were allowed to acclimate for a minimum of one week prior to initiation of the study. To evaluate tumor growth inhibition, DU145 tumor fragments were implanted s.c. in the right flank of nude mice. Tumors were established to 200±50 mm^3 in size before randomization into treatment groups of 8 mice each.
as §2, §3, §4

[5] = system: DU145 prostate carcinoma xenografts; experiment: Study No. 2: tumor growth inhibition in DU145 prostate carcinoma xenografts, extended dosing for 28 days; format: in vivo
Description: as §6, §5, §3, §4

[6] = Sutent 40 mg/kg qd, listed as Sunitinib
[7] = Avastin 4 mg/kg q4d (table; text 5 mg/kg q4d×4)
[8] = Avastin 4 mg/kg q4d (table; text 5 mg/kg q4d×4), listed as Bevacizumab
[9] = Avastin 4 mg/kg q4d×4, single agent
[10] = Avastin 4 mg/kg q4d×8, single agent
[11] = OSI-027 50 mg/kg qd oral, 14 days
[12] = OSI-027 50 mg/kg qd oral, 14 days, 50 mg/kg
[13] = OSI-027 50 mg/kg qd oral, 14 days, single agent
[14] = OSI-027 50 mg/kg qd oral, 50 mg/kg
[15] = OSI-027 50 mg/kg qd oral, 28 days, single agent
[16] = OSI-027 65 mg/kg qd oral, 28 days, single agent

Which “% Reg.” value ([1]; Sutent 40 mg/kg qd) does the source give for `CCN(CC)CCNC(=O)c1c(C)[nH]c(/C=C2\C(=O)Nc3ccc(F)cc32)c1C` [Sutent, sunitinib, reference compound] here?
The value was 0%.

What about the “Avg. TGI” value ([1]; Sutent 40 mg/kg qd) of the same compound?
Its value is 71%.

What about the “Morbidity (Mortality)” value ([1]; Sutent 40 mg/kg qd) of the same compound?
The value was 0/8.

What about the “Avg. TGI” value [1, 6] of the same compound?
The value was 71%.

What about the “% Reg.” value ([2]; Sutent 40 mg/kg qd) of the same compound?
The value was 0%.

What about the “Avg. TGI” value ([2]; Sutent 40 mg/kg qd) of the same compound?
The value was 55%.

And the “Morbidity (Mortality)” value ([2]; Sutent 40 mg/kg qd)?
The value was 0/8.

And the “Avg. TGI” value [2, 6]?
Its value is 55%.

What does the source list for “bevacizumab [Avastin, reference compound]”?
% Reg. [3, 7]: 0%; Avg. TGI [3, 7]: 67%; Morbidity (Mortality) [3, 7]: 0/8; % Reg. [3, 8]: 0%; Avg. TGI [3, 8]: 67%; % Reg. [4, 9]: 0%; Avg. TGI [4, 9]: 16%; Morbidity (Mortality) [4, 9]: 0/8; Avg. TGI ([4]; Avastin 4 mg/kg q4d×4, single agent, listed as Bevacizumab): 16%; % Reg. [5, 10]: 0%; Avg. TGI [5, 10]: 32%; Morbidity (Mortality) [5, 10]: 0/8; Avg. TGI ([5]; Avastin 4 mg/kg q4d×8, single agent, listed as Bevacizumab): 32%

For `COc1cccc2cc(-c3nc([C@H]4CC[C@H](C(=O)O)CC4)n4ncnc(N)c34)[nH]c12` [OSI-027, (1R,4R)-4-(4-amino-5-(7-methoxy-1H-indol-2-yl)imidazo[1,5-f][1,2,4]triazin-7-yl)cyclohexanecarboxylic acid], which BWL [3, 11] is on record?
The BWL was 2%.

And the “Morbidity (Mortality)” value [3, 11]?
The value was 0/8.

And the “% Reg.” value [3, 12]?
Its value is 4%.

What about the “Avg. TGI” value [3, 12] of the same compound?
The value was 86%.

What about the “% Reg.” value [4, 13] of the same compound?
Its value is 0%.

What about the “Morbidity (Mortality)” value [4, 13] of the same compound?
Its value is 0/8.

And the “Avg. TGI” value ([4]; OSI-027 50 mg/kg qd oral, 14 days, single agent, 50 mg/kg)?
Its value is 21%.

What about the BWL ([4]; mouse, in vivo, po, 50 mg/kg) of the same compound?
Its BWL is 6%.

And the BWL ([1]; OSI-027 50 mg/kg qd oral)?
The BWL was 0%.

What about the “Morbidity (Mortality)” value ([1]; OSI-027 50 mg/kg qd oral) of the same compound?
The value was 0/8.

And the “% Reg.” value [1, 14]?
The value was 6%.

What about the “Avg. TGI” value [1, 14] of the same compound?
The value was 78%.

What about the “% Reg.” value [5, 15] of the same compound?
The value was 0%.

What about the BWL [5, 15] of the same compound?
The BWL was 14%.

And the “Morbidity (Mortality)” value [5, 15]?
Its value is 0/8.

And the “Avg. TGI” value ([5]; OSI-027 50 mg/kg qd oral, 28 days, single agent, 50 mg/kg)?
Its value is 40%.

What about the “% Reg.” value [5, 16] of the same compound?
Its value is 0%.

And the BWL [5, 16]?
Its BWL is 17%.

What about the “Morbidity (Mortality)” value [5, 16] of the same compound?
The value was 0/8.

What about the “Avg. TGI” value ([5]; OSI-027 65 mg/kg qd oral, 28 days, single agent, 65 mg/kg) of the same compound?
Its value is 58%.

And the BWL ([2]; OSI-027 50 mg/kg qd oral)?
Its BWL is 0%.

And the “Morbidity (Mortality)” value ([2]; OSI-027 50 mg/kg qd oral)?
Its value is 0/8.

What about the “% Reg.” value [2, 14] of the same compound?
The value was 8%.

And the “Avg. TGI” value [2, 14]?
The value was 83%.
